{"source": "patent US20240216392A1", "about": "“METHODS OF TREAMENT” (Arena Pharmaceuticals, Inc., priority 2022, published 2024)", "key": {"[1]": {"assay": "Phase 1 multiple-dose study, plasma PK", "type": "in vivo, human", "settings": "both sexes, human, plasma, oral; for Tmax: read-out: Plasma Tmax, median (minimum, maximum); for AUC: read-out: Plasma AUCtau, geometric mean (geometric CV %); for Cmax: read-out: Plasma Cmax, geometric mean (geometric CV %); for AUC(0-inf): read-out: plasma geometric mean AUC0-inf", "description": "Subjects were enrolled to 1 of 2 dosage regimens. Subject enrollment was stratified by sex to ensure approximate sex balance in each cohort.\nMorning doses were administered following a standard light breakfast (e.g., milk and cereal, toast, and fruit) on all days. TID dosing (three times a day) was approximately 8 hours apart. Subjects fasted from midnight onwards, until the morning breakfast each day. There was no fluid restriction during the study, but subjects should not have consumed excessive amounts of fluid on any day.\nThe Phase 1, open-label, multiple-dose study of Example 1 was conducted for Cohorts 1-3, 4A, and 4B.\nMorning doses were administered following a standard light breakfast (e.g., milk and cereal, toast, and fruit) on all days. TID dosing (three times a day) was approximately 8 hours apart, and BID dosing (two times a day) was 12 hours apart. Subjects fasted from midnight onwards, until the morning breakfast each day. There was no fluid restriction during the study, but subjects were not to consume excessive amounts of fluid on any day."}, "[2]": {"assay": "safety and tolerability, Phase 1 study", "type": "in vivo, human", "description": "(§1) For Cohorts 1 and 2, the study consisted of a Screening period (Day −28 to −2), an on-site period from Day −1 to Day 16 and a 10-day postdosing follow-up visit (Day 25). Subjects were admitted to the clinic on Day −1 of the assessment period and remained confined to the clinic until completion of the assessment period (or longer if the Investigator deemed it is clinically indicated for safety follow-up). Safety was assessed continuously from signing of informed consent form through follow up visit. Safety assessments including cardiac troponins, vital signs, 12-lead ECGs (electrocardiograms) were performed at screening and daily from Day −1 to Day 16, and follow-up. C-SSRS (Columbia-suicide severity rating scale) was assessed at screening, Days −1, 11, 16, and 25.\nas §1, with “all cohorts,” for “Cohorts 1 and 2,”, “Safety assessments including cardiac troponins, vital signs, 12-lead ECGs (electrocardiograms) were performed at screening and daily from Day −1 to Day 16, and follow-up.” left out"}, "[3]": {"tested_on": "UGT metabolic pathway and renal transporters", "settings": "single 12 mg dose with probenecid/cimetidine vs alone"}, "[4]": {"tested_on": "CYP3A4, CYP2D6, P-gp"}, "[5]": {"tested_on": "plasma protein", "assay": "clinical", "settings": "human, oral"}, "[6]": {"settings": "12 mg, Day 9, Cohort 2 (12 mg TID)"}, "[7]": {"settings": "12 mg, Day 9, Cohort 3 (12 mg BID)"}, "[8]": {"settings": "12 mg, Day 10, Cohort 2 (12 mg TID)"}, "[9]": {"settings": "12 mg, Day 10, Cohort 3 (12 mg BID)"}, "[10]": {"settings": "15 mg, Day 8, Cohort 4A (15 mg BID)"}, "[11]": {"settings": "15 mg, Day 9, Cohort 4A (15 mg BID)"}, "[12]": {"settings": "15 mg, Day 10, Cohort 4A (15 mg BID)"}, "[13]": {"settings": "18 mg, Day 8, Cohort 4B (18 mg BID)"}, "[14]": {"settings": "18 mg, Day 9, Cohort 4B (18 mg BID)"}, "[15]": {"settings": "18 mg, Day 10, Cohort 4B (18 mg BID)"}}, "note": "Like-named read-outs stand apart in the source and are kept apart here."}
{"smiles": "C[C@H]1CN2CCNCc3ccc(C(=O)NCC(F)F)c1c32", "note": "[Compound 1, (R)—N-(2,2-difluoroethyl)-7-methyl-1,2,3,4,6,7-hexahydro-[1,4]diazepino[6,7,1-hi]indole-8-carboxamide]", "values": [{"measurement": "half-life", "setting": "[1]; 12 mg, Day 8, Cohort 3 (12 mg BID), read-out: Plasma T1/2, mean (SD) (converted)", "result": 4.32, "unit": "h"}, {"measurement": "Tmax", "setting": "[1]; 12 mg, Day 8, Cohort 3 (12 mg BID)", "result": 1.01, "unit": "h"}, {"measurement": "AUC", "setting": "[1]; [6]", "result": 0.194, "unit": "µg·h/mL"}, {"measurement": "Cmax", "setting": "[1]; [6]", "result": 0.0445, "unit": "µg/mL"}, {"measurement": "half-life", "setting": "[1]; 12 mg, Day 9, Cohort 2 (12 mg TID), read-out: Plasma T1/2, mean (SD) (converted)", "result": 4.79, "unit": "h"}, {"measurement": "Tmax", "setting": "[1]; [6]", "result": 0.92, "unit": "h"}, {"measurement": "AUC", "setting": "[1]; [7]", "result": 0.163, "unit": "µg·h/mL"}, {"measurement": "Cmax", "setting": "[1]; [7]", "result": 0.0372, "unit": "µg/mL"}, {"measurement": "half-life", "setting": "[1]; 12 mg, Day 9, Cohort 3 (12 mg BID), read-out: Plasma T1/2, mean (SD) (converted)", "result": 4.58, "unit": "h"}, {"measurement": "Tmax", "setting": "[1]; [7]", "result": 0.93, "unit": "h"}, {"measurement": "AUC", "setting": "[1]; [8]", "result": 0.196, "unit": "µg·h/mL"}, {"measurement": "Cmax", "setting": "[1]; [8]", "result": 0.0398, "unit": "µg/mL"}, {"measurement": "half-life", "setting": "[1]; 12 mg, Day 10, Cohort 2 (12 mg TID), read-out: Plasma T1/2, mean (SD) (converted)", "result": 4.08, "unit": "h"}, {"measurement": "Tmax", "setting": "[1]; [8]", "result": 1.02, "unit": "h"}, {"measurement": "AUC", "setting": "[1]; [9]", "result": 0.154, "unit": "µg·h/mL"}, {"measurement": "Cmax", "setting": "[1]; [9]", "result": 0.0313, "unit": "µg/mL"}, {"measurement": "half-life", "setting": "[1]; 12 mg, Day 10, Cohort 3 (12 mg BID), read-out: Plasma T1/2, mean (SD) (converted)", "result": 3.54, "unit": "h"}, {"measurement": "Tmax", "setting": "[1]; [9]", "result": 1, "unit": "h"}, {"measurement": "AUC", "setting": "[1]; [10]", "result": 0.194, "unit": "µg·h/mL"}, {"measurement": "Cmax", "setting": "[1]; [10]", "result": 0.0448, "unit": "µg/mL"}, {"measurement": "half-life", "setting": "[1]; 15 mg, Day 8, Cohort 4A (15 mg BID), read-out: Plasma T1/2, mean (SD) (converted)", "result": 5.36, "unit": "h"}, {"measurement": "Tmax", "setting": "[1]; [10]", "result": 0.55, "unit": "h"}, {"measurement": "AUC", "setting": "[1]; [11]", "result": 0.208, "unit": "µg·h/mL"}, {"measurement": "Cmax", "setting": "[1]; [11]", "result": 0.0502, "unit": "µg/mL"}, {"measurement": "half-life", "setting": "[1]; 15 mg, Day 9, Cohort 4A (15 mg BID), read-out: Plasma T1/2, mean (SD) (converted)", "result": 5.51, "unit": "h"}, {"measurement": "Tmax", "setting": "[1]; [11]", "result": 0.57, "unit": "h"}, {"measurement": "AUC", "setting": "[1]; [12]", "result": 0.193, "unit": "µg·h/mL"}, {"measurement": "Cmax", "setting": "[1]; [12]", "result": 0.0409, "unit": "µg/mL"}, {"measurement": "half-life", "setting": "[1]; 15 mg, Day 10, Cohort 4A (15 mg BID), read-out: Plasma T1/2, mean (SD) (converted)", "result": 3.72, "unit": "h"}, {"measurement": "Tmax", "setting": "[1]; [12]", "result": 1.06, "unit": "h"}, {"measurement": "AUC", "setting": "[1]; [13]", "result": 0.23, "unit": "µg·h/mL"}, {"measurement": "Cmax", "setting": "[1]; [13]", "result": 0.0432, "unit": "µg/mL"}, {"measurement": "half-life", "setting": "[1]; 18 mg, Day 8, Cohort 4B (18 mg BID), read-out: Plasma T1/2, mean (SD) (converted)", "result": 5.51, "unit": "h"}, {"measurement": "Tmax", "setting": "[1]; [13]", "result": 0.99, "unit": "h"}, {"measurement": "AUC", "setting": "[1]; [14]", "result": 0.242, "unit": "µg·h/mL"}, {"measurement": "Cmax", "setting": "[1]; [14]", "result": 0.0477, "unit": "µg/mL"}, {"measurement": "half-life", "setting": "[1]; 18 mg, Day 9, Cohort 4B (18 mg BID), read-out: Plasma T1/2, mean (SD) (converted)", "result": 4.3, "unit": "h"}, {"measurement": "Tmax", "setting": "[1]; [14]", "result": 0.5, "unit": "h"}, {"measurement": "AUC", "setting": "[1]; [15]", "result": 0.224, "unit": "µg·h/mL"}, {"measurement": "Cmax", "setting": "[1]; [15]", "result": 0.053, "unit": "µg/mL"}, {"measurement": "half-life", "setting": "[1]; 18 mg, Day 10, Cohort 4B (18 mg BID), read-out: Plasma T1/2, mean (SD) (converted)", "result": 3.51, "unit": "h"}, {"measurement": "Tmax", "setting": "[1]; [15]", "result": 1, "unit": "h"}, {"measurement": "half-life", "setting": "[1]; steady state, read-out: half-life at steady state (converted)", "result": "~5", "unit": "h"}, {"measurement": "AUC(0-inf)", "setting": "[1]; Day 1, single 3 mg dose, Cohort 1", "result": 0.0213, "unit": "µg·h/mL"}, {"measurement": "AUC(0-inf)", "setting": "[1]; Day 1, single 6 mg dose, Cohorts 2, 3, 4A, 4B", "result": "0.0365 to 0.0519", "unit": "µg·h/mL"}, {"measurement": "safety and tolerability", "setting": "[2]; Cohorts 1 and 2", "result": "Favorable safety and tolerability results"}, {"measurement": "safety and tolerability", "setting": "[2]; all cohorts", "result": "Favorable safety and tolerability results"}, {"measurement": "increase in Compound 1 exposure", "setting": "[3]", "result": "~80", "unit": "%"}, {"measurement": "safety and tolerability", "setting": "[4]; alone or in combination with other probe substrates", "result": "safe and generally well-tolerated"}, {"measurement": "substrate for CYP3A4, CYP2D6 or P-gp", "setting": "[4]; lack of effect of quinidine on exposure", "result": "not a substrate for CYP3A4, CYP2D6, or P-gp"}, {"measurement": "fraction unbound at 11 day", "setting": "[5]; 6 mg, Day 11, Cohort 1 (6 mg TID)", "result": 0.969}, {"measurement": "fraction unbound at 11 day", "setting": "[5]; 12 mg, Day 11, Cohort 2 (12 mg TID)", "result": 0.968}, {"measurement": "fraction unbound at 11 day", "setting": "[5]; 12 mg, Day 11, Cohort 3 (12 mg BID)", "result": 0.93}, {"measurement": "fraction unbound at 11 day", "setting": "[5]; 15 mg, Day 11, Cohort 4A (15 mg BID)", "result": 0.913}, {"measurement": "fraction unbound at 11 day", "setting": "[5]; 18 mg, Day 11, Cohort 4B (18 mg BID)", "result": 0.926}]}
